Reference: patent US20060147936A1, “Use of a gene mutation in the human gnas gene for predicting risks of diseases, courses of the disease and for predicting the response to disease therapies” (priority 2003, published 2006)

What was measured:
human fat cells = assay: isoprenaline-stimulated lipolysis (glycerol release) in human fat cells ex vivo; type: cell-based; settings: compared with other genotypes
Text: For this purpose, human fat cells ex vivo were stimulated with isoprenaline and lipolysis quantified on the basis of glycerol release (Hauner H et al. Effects of the G protein beta3 subunit 825T allele on adipogenesis and lipolysis in cultured human preadipocytes and adipocytes. Horm Metab Res. 2002;34(9):475-80). […] This agrees with the observation of increased expression of Gαs protein in this genotype.
In fat cells from humans with the GG genotype, there is increased lipolysis, measured as the release of glycerol. […] This also agrees with the observation that persons with the GG genotype on a low calorie diet lose more weight than persons with the AA/AG genotype.

[1] = metformin therapy for 12 months in women with PCOS: HOMA-IR index and BMI; type: in vivo, human; settings: metformin 12 months
Procedure: Polycystic ovarian syndrome (PCOS) is a frequent endocrine disease, characterized by chronic anovulation and hyperandrogenism. About 5% of all premenopausal women are affected by this. […] Treatment of PCOS patients with metformin improves fertility and androgen levels, reduces insulin resistance and facilitates weight reduction. For this purpose, women with the PCOS syndrome were treated with metformin for 12 months. Changes in the Body Mass Index (BMI) and insulin resistance according to the HOMA-IR method (homeostasis model assessment for insulin resistance) were investigated, together with the GNAS genotypes of the T393C polymorphism. FIG. 22A shoes the influence of therapy with an oral antidiabetic(metformin) on insulin resistance(A) and Body Mass Index (BMI; B) in women with polycystic ovaries. As already mentioned, therapy was carried out with metformin for 12 months. The change in the HOMA-IR index is given as a measure of the insulin resistance. It is evident that the most marked improvement of the HOMA-IR index is in individuals with the CC genotype(2.9), in contrast to 2.2 with the TC genotype and only 0.9 with the TT genotype. […] The changes in the BMI (a measure of body fat) behave similarly. […] This includes not only metformin, but also the so-called glitazones, tolbutamide, sulfonylureas and their derivatives, glinides and arcabose.

[2] = placebo-controlled, double blind study of sibutramine in obese patients: loss of weight after one year; type: in vivo, human; settings: 15 mg/day for one year
Procedure: (§1) In the context of a placebo-controlled, double blind study, obese patients were given 15 mg sibutramine/day for one year. Sibutramine is a centrally active re-uptake inhibitor of noradrenaline and serotonin, both of which act through G protein-coupled receptors. Sibutramine (trade-name: Reductil, Meridia) enhances the feeling of satiety and makes it easier to lose weight in the context of structured measures to reduce weight (increase in physical activity, reduction in calorie intake). The outcome parameter of the study was the weight loss after one year.
The placebo or sibutramine (15 mg/day) were administered for one year. The loss of weight after one year (%) is illustrated, in dependence on the GNAS T393C genotype.
In addition, the study population was genotyped with respect to the GNAS G(-1211)A polymorphism (FIG. 19B). […] Placebo or sibutramine (15 mg/day) was administered for one year. The loss of weight (%) after one year is illustrated in dependence on the GNAS G(1211)A genotype. In the placebo group, patients with GNAS (-1211) GG genotype clearly could lose weight better(7.3%) than those with the AA- and AG genotype (1.8 and 3.1%, respectively). […] Thus therapy with sibutramine is predominantly indicated for patients with AG/AA genotype, whereas patients with CC genotype can also lose weight well under placebo. The time courses of the loss of weight for each genotype of the 393CT393C polymorphism (sibutramine versus placebo) are shown in FIGS. 20A, 20B and 20C. FIGS. 20 A, B and C illustrate the individual time courses for the changes in weight with placebo or sibutramine for the GNAS 393 CC genotype (A), the TC genotype (B) and the TT genotype (C). It is evident that only the TC and TT genotypes benefit from therapy with 15 mg sibutramine daily, whereas CC genotypes can lose weight without drug.

[3] = cardiovascular side-effects (heart rate, blood pressure) under therapy with sibutramine versus placebo; type: in vivo, human
Procedure: as §1
The connection between gene modifications in the GNAS gene and the change in heart rate was examined after treatment with sibutramine versus placebo (FIG. 25). The effects are illustrated as they depend on the T393C polymorphism. […] FIG. 26 makes clear the possible use of a gene modification in the human GNAS gene to predict the increase in diastolic blood pressure during treatment with sibutramine.
FIG. 27 illustrates once again the possible use of a gene modification in the human GNAS gene to predict an increase in the heart rate during therapy with sibutramine. This illustrates the effects, in dependence on genotypes of the G(-1211)A polymorphism. […] Finally, FIG. 28 illustrates the possibility of an additional use of a gene modification in the human GNAS gene in the prediction of an increase in systolic blood pressure during therapy with sibutramine.

With `CC(C)NCC(O)c1ccc(O)c(O)c1` (stereo not shown) [isoprenaline] the “stimulation of lipolysis (glycerol release)” value (human fat cells; fat cells from humans with GNAS G(-1211)A GG genotype) was “most marked stimulation of lipolysis” and the “stimulation of lipolysis (glycerol release)” value (human fat cells; fat cells from individuals with GNAS 393 TT genotype) was “most marked stimulation of lipolysis”.

For `CN(C)C(=N)N=C(N)N` [metformin], the “decrease in the BMI” value ([1]; GNAS T393C CC genotype) was 15.8%, the “improvement of the HOMA-IR index (insulin resistance)” value (“improvement of the HOMA-IR index” below) ([1]; GNAS T393C CC genotype) was 2.9 and the “decrease in the BMI” value ([1]; GNAS T393C TC genotype) was 4.8%. The “improvement of the HOMA-IR index” value ([1]; GNAS T393C TC genotype) was 2.2, the “decrease in the BMI” value ([1]; GNAS T393C TT genotype) was 1.5% and the “improvement of the HOMA-IR index” value ([1]; GNAS T393C TT genotype) was 0.9.

With `CC(C)CC(N(C)C)C1(c2ccc(Cl)cc2)CCC1` (stereo not shown) [sibutramine] the “loss of weight after one year, sibutramine vs placebo” value (from here on “loss of weight … vs placebo”) ([2]; GNAS G(-1211)A AG and AA genotype) was “marked (p=0.027) increase in the loss of weight”, the “loss of weight … vs placebo” value ([2]; GNAS G(-1211)A GG genotype) was “favorable drug effect was not observed” and the “loss of weight … vs placebo” value ([2]; GNAS T393C CC genotype) was “favorable drug effect was not observed”. The “loss of weight … vs placebo” value ([2]; GNAS T393C TC and TT genotype) was “clear (p=0.027) increase in the loss of weight”, the “change in diastolic blood pressure during therapy with sibutramine” value ([3]; GNAS 393 CC and TC genotypes) was “does not occur” and the “change in diastolic blood pressure during therapy with sibutramine” value ([3]; GNAS 393 TT genotype) was “significant increase”. The “change in systolic blood pressure under therapy with sibutramine” value ([3]; GNAS -1211 GG genotype) was “lack of reduction of the systolic blood pressure”, the “change in heart rate (sibutramine versus placebo)” value ([3]; GNAS G(-1211)A GG genotype compared with AA/AG genotypes) was “significantly greater change in heart rate” and the “increase in heart rate with sibutramine versus placebo” value (“increase in heart rate” for short) ([3]; GNAS T393C CC genotype) was “This effect does not occur”. The “increase in heart rate” value ([3]; GNAS T393C TC genotype) was 10 beats per minute and the “increase in heart rate” value ([3]; GNAS T393C TT genotype) was 20 beats per minute.
